Target: T1, hTLR7 (Homo sapiens, UniProt Q9NYK1)
T1 construct: expressed in transfected cells; host or cells: HEK-Blue hTLR7 reporter cell line
T1 sequence (Q9NYK1 27-1049): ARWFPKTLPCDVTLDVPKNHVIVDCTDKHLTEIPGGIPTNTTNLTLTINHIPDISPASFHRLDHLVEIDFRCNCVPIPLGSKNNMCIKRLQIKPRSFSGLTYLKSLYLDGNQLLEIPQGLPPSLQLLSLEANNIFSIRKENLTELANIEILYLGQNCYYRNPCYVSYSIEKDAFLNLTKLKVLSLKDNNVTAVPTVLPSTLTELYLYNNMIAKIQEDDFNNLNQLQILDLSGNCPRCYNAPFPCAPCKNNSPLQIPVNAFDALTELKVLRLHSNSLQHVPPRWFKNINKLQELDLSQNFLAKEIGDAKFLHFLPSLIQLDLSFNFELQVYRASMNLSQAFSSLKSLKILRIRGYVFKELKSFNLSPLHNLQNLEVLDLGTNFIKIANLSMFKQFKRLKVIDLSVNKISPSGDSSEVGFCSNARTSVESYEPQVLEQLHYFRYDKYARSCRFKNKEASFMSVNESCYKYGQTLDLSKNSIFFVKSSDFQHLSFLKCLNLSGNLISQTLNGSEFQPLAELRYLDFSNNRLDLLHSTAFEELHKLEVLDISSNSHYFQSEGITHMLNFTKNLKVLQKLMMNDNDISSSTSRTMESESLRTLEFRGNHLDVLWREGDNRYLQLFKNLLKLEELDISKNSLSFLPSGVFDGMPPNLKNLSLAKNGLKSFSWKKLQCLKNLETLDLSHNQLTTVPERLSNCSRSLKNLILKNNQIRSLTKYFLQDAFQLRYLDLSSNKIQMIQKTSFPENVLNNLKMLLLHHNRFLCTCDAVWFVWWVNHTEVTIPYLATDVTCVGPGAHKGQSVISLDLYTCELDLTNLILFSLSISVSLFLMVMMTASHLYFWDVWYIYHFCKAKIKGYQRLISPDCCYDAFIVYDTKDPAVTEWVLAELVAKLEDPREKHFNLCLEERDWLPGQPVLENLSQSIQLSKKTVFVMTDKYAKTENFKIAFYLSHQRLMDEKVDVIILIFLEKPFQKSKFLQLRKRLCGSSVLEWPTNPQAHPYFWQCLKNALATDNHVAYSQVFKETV
Assay: HEK-Blue hTLR7 reporter assay (NF-kB-induced SEAP, Quanti-Blue)
Assay type: cell-based
Settings: Table 11, TLR7 activities; read-out: EC50
Protocol: HEK-Blue™ hTLR7 cells were incubated in HEK-Blue™ Detection medium and stimulated with increasing concentrations of TLR7 or TLR8 or TLR7/8 agonists. […] The EC50 was determined from dose-response curve using Prism Software.

**Q.** Which EC50 does the source give for CCCCOc1nc(N)c2[nH]c(=O)n(Cc3ccc(CN4CCC(CCNC(=O)C(C)(C)C)CC4)cc3)c2n1 [AXC-885, N-(2-(1-(4-((6-amino-2-butoxy-8-oxo-7H-purin-9(8H)-yl)methyl)benzyl)piperidin-4-yl)ethyl)pivalamide] here?
**A.** 11.3 nM

**Q.** CCCCOc1nc(N)c2[nH]c(=O)n(Cc3ccc(CNCCCCCCN)cc3)c2n1 [AXC-881, 6-amino-9-(4-((6-aminohexylamino)methyl)benzyl)-2-butoxy-7H-purin-8(9H)-one] was tested. Which EC50 did it give?
**A.** 87.3 nM

**Q.** For CCCCOc1nc(N)c2[nH]c(=O)n(Cc3ccc(CN4CCC(CCNC(=O)C(C)C)CC4)cc3)c2n1 [AXC-890, N-(2-(1-(4-((6-amino-2-butoxy-8-oxo-7H-purin-9(8H)-yl)methyl)benzyl)piperidin-4-yl)ethyl)isobutyramide], which EC50 is on record?
**A.** 15.3 nM

**Q.** CCCCOc1nc(N)c2[nH]c(=O)n(Cc3ccc(CN4CCC(CCNC(=O)C(C)(C)NC)CC4)cc3)c2n1 [AXC-884, N-(2-(1-(4-((6-amino-2-butoxy-8-oxo-7H-purin-9(8H)-yl)methyl)benzyl)piperidin-4-yl)ethyl)-2-methyl-2-(methylamino)propanamide] was tested. Which EC50 did it give?
**A.** 71.3 nM

Same assay, conditions: Table 12, TLR7 agonists attached to a linker; read-out: TLR Agonist Payload + Linkers EC50

**Q.** For CCCCOc1nc(N)c2[nH]c(=O)n(Cc3ccc(CNCCCCCCNC(=O)CON)cc3)c2n1 [AXC-882, N-(6-(4-((6-amino-2-butoxy-8-oxo-7H-purin-9(8H)-yl)methyl)benzylamino)hexyl)-2-(aminooxy)acetamide], which EC50 is on record?
**A.** 551 nM

**Q.** Which EC50 does the source give for CCCCOc1nc(N)c2[nH]c(=O)n(Cc3ccc(CN4CCC(CCNC(=O)CCOCCON)CC4)cc3)c2n1 [AXC-880, N-(2-(1-(4-((6-amino-2-butoxy-8-oxo-7H-purin-9(8H)-yl)methyl)benzyl)piperidin-4-yl)ethyl)-3-(2-(aminooxy)ethoxy)propenamide] here?
**A.** 410 nM

Same assay, conditions: Table 13, TLR7; read-out: EC50

**Q.** Which EC50 does the source give for CCCCOc1nc(N)c2[nH]c(=O)n(Cc3ccc(CN4CCC(CCNC(=O)[C@H](C)N)CC4)cc3)c2n1 [AXC-891, (S)-2-amino-N-(2-(1-(4-((6-amino-2-butoxy-8-oxo-7H-purin-9(8H)-yl)methyl)benzyl)piperidin-4-yl)ethyl)propanamide] here?
**A.** 47 nM

**Q.** For CCCCOc1nc(N)c2[nH]c(=O)n(Cc3ccc(CN4CCC(CCNC(=O)[C@H](C)NC(=O)CON)CC4)cc3)c2n1 [AXC-896, (S)—N-(2-(1-(4-((6-amino-2-butoxy-8-oxo-7H-purin-9(8H)-yl)methyl)benzyl)piperidin-4-yl)ethyl)-2-(2-(aminooxy)acetamido)propanamide], which EC50 is on record?
**A.** 325 nM

Same assay, conditions: Table 14; read-out: TLR7 EC50

**Q.** CCCCOc1nc(N)c2[nH]c(=O)n(Cc3ccc(CN4CCC(C5CCN(C(=O)CCOCCON)CC5)CC4)cc3)c2n1 [AXC-909, 6-amino-9-(4-((1′-(3-(2-(aminooxy)ethoxy)propanoyl)-4,4′-bipiperidin-1-yl)methyl)benzyl)-2-butoxy-7H-purin-8(9H)-one] was tested. Which EC50 did it give?
**A.** 71.9 nM

Same assay, conditions: Table 15, drug linker; read-out: TLR Agonist + Linker (DL) - EC50

**Q.** Which EC50 does the source give for CCCCOc1nc(N)c2[nH]c(=O)n(Cc3ccc(CNCCCCCCNC(=O)CON)cc3)c2n1 [AXC-882, N-(6-(4-((6-amino-2-butoxy-8-oxo-7H-purin-9(8H)-yl)methyl)benzylamino)hexyl)-2-(aminooxy)acetamide] here?
**A.** 551 nM

**Q.** With CCCCOc1nc(N)c2[nH]c(=O)n(Cc3ccc(CN4CCC(CCNC(=O)CCOCCON)CC4)cc3)c2n1 [AXC-880, N-(2-(1-(4-((6-amino-2-butoxy-8-oxo-7H-purin-9(8H)-yl)methyl)benzyl)piperidin-4-yl)ethyl)-3-(2-(aminooxy)ethoxy)propenamide] as the compound, how does the EC50 read?
**A.** 410 nM

Same assay, conditions: Table 15, pAF containing final metabolite; read-out: TLR Agonist + Linker + nnAA (DL-pAF) - EC50

**Q.** CCCCOc1nc(N)c2[nH]c(=O)n(Cc3ccc(CNCCCCCCNC(=O)CON)cc3)c2n1 [AXC-882, N-(6-(4-((6-amino-2-butoxy-8-oxo-7H-purin-9(8H)-yl)methyl)benzylamino)hexyl)-2-(aminooxy)acetamide] was tested. Which EC50 did it give?
**A.** 343 nM

**Q.** For CCCCOc1nc(N)c2[nH]c(=O)n(Cc3ccc(CN4CCC(CCNC(=O)CCOCCON)CC4)cc3)c2n1 [AXC-880, N-(2-(1-(4-((6-amino-2-butoxy-8-oxo-7H-purin-9(8H)-yl)methyl)benzyl)piperidin-4-yl)ethyl)-3-(2-(aminooxy)ethoxy)propenamide], which EC50 is on record?
**A.** 167 nM

Same assay, conditions: Table 19, TLR7, drug-linkers with PEG shielding; read-out: EC50

**Q.** How did the EC50 turn out when CCCCOc1nc(NC(=O)CCOCCOCCOC)c2[nH]c(=O)n(Cc3ccc(CN4CCC(CCN)CC4)cc3)c2n1 [AXC-982, N-(9-(4-((4-(2-aminoethyl)piperidin-1-yl)methyl)benzyl)-2-butoxy-8-oxo-8,9-dihydro-7H-purin-6-yl)-3-(2-(2-methoxyethoxy)ethoxy)propanamide] was run?
**A.** 19.1 nM

**Q.** For CCCCOc1nc(N)c2[nH]c(=O)n(Cc3ccc(CN4CCC(CCNC(=O)[C@H](CCCCNC(=O)CON)NC(=O)CCCC(=O)NCCOCCOCCOCCOCCC(=O)NC(COCCC(=O)NCCOCCOCCOCCOC)(COCCC(=O)NCCOCCOCCOCCOC)COCCC(=O)NCCOCCOCCOCCOC)CC4)cc3)c2n1 [AXC-938, (S)-N1-(1-((2-(1-(4-((6-amino-2-butoxy-8-oxo-7,8-dihydro-9H-purin-9-yl)methyl)benzyl)piperidin-4-yl)ethyl)amino)-6-(2-(aminooxy)acetamido)-1-oxohexan-2-yl)-N5-mPEG4-(PEG4)3-glutaramide], which EC50 is on record?
**A.** 644 nM

**Q.** Which EC50 does the source give for CCCCOc1nc(N)c2[nH]c(=O)n(Cc3ccc(CN4CCC(CCNC(=O)[C@@H](N)Cn5cc(CON)nn5)CC4)cc3)c2n1 [AXC-932, (S)-2-amino-N-(2-(1-(4-((6-amino-2-butoxy-8-oxo-7,8-dihydro-9H-purin-9-yl)methyl)benzyl)piperidin-4-yl)ethyl)-3-(4-((aminooxy)methyl)-1H-1,2,3-triazol-1-yl)propanamide] here?
**A.** 156 nM

**Q.** With CCCCOc1nc(NC(C)=O)c2[nH]c(=O)n(Cc3ccc(CN4CCC(CCN)CC4)cc3)c2n1 [AXC-964, N-(9-(4-((4-(2-aminoethyl)piperidin-1-yl)methyl)benzyl)-2-butoxy-8-oxo-8,9-dihydro-7H-purin-6-yl)acetamide] as the compound, how does the EC50 read?
**A.** 10.3 nM

**Q.** Which EC50 does the source give for CCCCCC(=O)Nc1nc(OCCCC)nc2c1[nH]c(=O)n2Cc1ccc(CN2CCC(CCNC(=O)CON)CC2)cc1 [AXC-965, N-(9-(4-((4-(2-(2-(aminooxy)acetamido)ethyl)piperidin-1-yl)methyl)benzyl)-2-butoxy-8-oxo-8,9-dihydro-7H-purin-6-yl)hexanamide] here?
**A.** 48.3 nM

**Q.** How did the EC50 turn out when CCCCOc1nc(N)c2[nH]c(=O)n(Cc3ccc(CN4CCC(CCNC(=O)[C@H](Cc5ccc(O)cc5)NC(=O)CON)CC4)cc3)c2n1 [AXC-953, (S)—N-(2-(1-(4-((6-amino-2-butoxy-8-oxo-7,8-dihydro-9H-purin-9-yl)methyl)benzyl)piperidin-4-yl)ethyl)-2-(2-(aminooxy)acetamido)-3-(4-hydroxyphenyl)propanamide] was run?
**A.** 201 nM

**Q.** For CCCCOc1nc(NC(C)=O)c2[nH]c(=O)n(Cc3ccc(CN4CCC(C5CCNCC5)CC4)cc3)c2n1 [AXC-980, N-(9-(4-(4,4′-bipiperidin-1-ylmethyl)benzyl)-2-butoxy-8-oxo-8,9-dihydro-7H-purin-6-yl)acetamide], which EC50 is on record?
**A.** 29.6 nM

**Q.** How did the EC50 turn out when CCCCOc1nc(N)c2[nH]c(=O)n(Cc3ccc(CN4CCC(CCNC(=O)[C@H](CCCCNC(=O)CON)NC(=O)CCOCCOCCOCCOCCOCCOCCOCCOC)CC4)cc3)c2n1 [AXC-937, (S)-2-PEG8-N-(2-(1-(4-((6-amino-2-butoxy-8-oxo-7,8-dihydro-9H-purin-9-yl)methyl)benzyl)piperidin-4-yl)ethyl)-6-(2-(aminooxy)acetamido)hexanamide] was run?
**A.** 456 nM

**Q.** CCCCOc1nc(N)c2[nH]c(=O)n(Cc3ccc(CN4CCC(CCNC(=O)[C@@H](CCCCNC(=O)CCOCCOCCOCCOCCOCCOCCOCCOC)NC(=O)CON)CC4)cc3)c2n1 [AXC-962, (R)—N-(2-(1-(4-((6-amino-2-butoxy-8-oxo-7,8-dihydro-9H-purin-9-yl)methyl)benzyl)piperidin-4-yl)ethyl)-2-(2-(aminooxy)acetamido)-6-(PEG8)amidohexanamide] was tested. Which EC50 did it give?
**A.** 453 nM

**Q.** CCCCOc1nc(N)c2[nH]c(=O)n(Cc3ccc(CN4CCC(CCNC(=O)[C@H](CCCCNC(=O)CCOCCOCCOCCOCCOCCOCCOCCOC)NC(=O)CON)CC4)cc3)c2n1 [AXC-950, (S)—N-(2-(1-(4-((6-amino-2-butoxy-8-oxo-7,8-dihydro-9H-purin-9-yl)methyl)benzyl)piperidin-4-yl)ethyl)-2-(2-(aminooxy)acetamido)-6-PEG8-amidohexanamide] was tested. Which EC50 did it give?
**A.** 443 nM

**Q.** CCCCOc1nc(N)c2[nH]c(=O)n(Cc3ccc(CN4CCC(CCNC(=O)[C@@H](N)Cc5ccc(O)cc5)CC4)cc3)c2n1 [AXC-934, (S)-2-amino-N-(2-(1-(4-((6-amino-2-butoxy-8-oxo-7,8-dihydro-9H-purin-9-yl)methyl)benzyl)piperidin-4-yl)ethyl)-3-(4-hydroxyphenyl)propanamide] was tested. Which EC50 did it give?
**A.** 10.3 nM

**Q.** For CCCCOC(=O)Nc1nc(OCCCC)nc2c1[nH]c(=O)n2Cc1ccc(CN2CCC(CCNC(=O)CON)CC2)cc1 [AXC-954, butyl (9-(4-((4-(2-(2-(aminooxy)acetamido)ethyl)piperidin-1-yl)methyl)benzyl)-2-butoxy-8-oxo-8,9-dihydro-7H-purin-6-yl)carbamate], which EC50 is on record?
**A.** 111 nM

**Q.** How did the EC50 turn out when CCCCOc1nc(N)c2[nH]c(=O)n(Cc3ccc(CN4CCC(CCNC(=O)[C@@H](CCCCNC(=O)CCOCCOCCOCCOCCOCCOCCOCCOCCOCCOCCOCCOCCOCCOCCOCCOCCOCCOCCOCCOCCOCCOCCOCCOC)NC(=O)CON)CC4)cc3)c2n1 [AXC-959, (R)—N-(2-(1-(4-((6-amino-2-butoxy-8-oxo-7,8-dihydro-9H-purin-9-yl)methyl)benzyl)piperidin-4-yl)ethyl)-2-(2-(aminooxy)acetamido)-6-PEG24-amidohexanamide] was run?
**A.** 551 nM

Source: patent US20230302150A1, “ANTIBODY-TLR AGONIST CONJUGATES, METHODS AND USES THEREOF” (Ambrx, Inc., priority 2020, published 2023)
